The test system of assay [1] is large hydrophilic loop of PS2. The assay is described as follows: co-immunoprecipitation in 293T cells, PS2 loop. The class given is binding. Particulars: immunoprecipitation with anti-TAG, 48 hrs after transfection. As for the experimental part: To confirm the yeast two-hybrid data, the interaction between PBP and PSs was assayed in mammalian cells by immunoprecipitation. Human kidney 293-T cells, and monkey kidney COS-7 cells were cultured in Dulbecco's modified Eagle's medium supplemented with 10% fetal calf serum at 37° C. in a 10% CO2 atmosphere. A nine-amino acid TAG epitope ([…]) (SEQ ID NO:6) was incorporated in-frame at the 3′ end of the PBP cDNA (PBP-TAG), and an eight amino acid FLAG epitope ([…]) (SEQ ID NO:7) was attached in frame at the 5′ end of the large hydrophilic loop of PS1 cDNA and at the 3′ end of full length PS1 cDNA as described previously (Kimura, H., Proc. Natl. Acad. Sci. (USA), 90:2165-2169 (1993)). The resulting fragments were inserted into the pCIS2 expression vector (Genentech, San Francisco, Calif.) for transient or constitutive expression. […]
For immunoprecipitation of the large hydrophilic loop of PSs or Crk with PBP, cells were lysed in RIPA buffer (100 mM NaCl, 0.5% NP-40, 0.5% DOC, 0.1% SDS, 50 mM Tris, pH 7.5, 1 mM PMSF and 1 μg/ml aprotinin, 1 μg/l leupeptin) on ice for 30 min. […] The bound antibodies were detected by the ECL-plus chemiluminescence system (Amersham, Arlington Heights, Ill.).

Assay [2] has as its system Ca2+-activated Cl- current. The assay is described as follows: Ca2+-activated Cl- current induced by serum in Xenopus oocytes. The class given is cell-based. The text has this:
Xenopus oocytes contain a plasma membrane CF channel which is activated by increases in intracellular Ca^2+, and intracellular Ca^2+ release is activated exclusively by inositol 1,4,5-triphosphate (IP3) Miledi & Parker, J. Physiol., 415:189-210 (1989)). Lysophosphatidic acid (LPA) increases the Ca^2+-activated Cl^− current in oocytes expressing PS1 relative to control oocytes (Leissring et al. (1999)). Since PBP can associate with PS1, the effect of the interaction of PBP with PS1 on the activation of Ca^2+-activated Cl^− current induced by serum (Miledi & Parker (1989)) was examined with Xenopus oocytes. […] Injection of cRNAs into Xenopus oocytes and the electrophysiological recordings were done as described previously (Kimura & Schubert, Proc. Natl. Acad. Sci. (USA), 90:7508-7512 (1993)).

As for “PBP: novel 2027 amino acid protein, 233 kD, binds presenilins and Crk; expressed from cDNA in cells (KYGVVICSFRGSVPQGLVLEIGETVQILEKCEGWYRGVSTKKPNVKGLFPANYIHLK; listed as Mus musculus)”, the “interaction with large hydrophilic loop of PS2” value in assay [1] is given as “interacts”. Moreover, the “Ca2+-activated Cl- current” value in assay [2] (PBP alone expressed) is listed as “slightly decreases”; in assay [2] (co-expression with PS1, P<0.05 PS1 vs PS1+PBP), “significantly suppresses”. Also, the Cl- current entry in assay [2] (PS1-loop mutation L392V in the presence of PBP) is reported as “does not suppress”.

For the origin of these results see patent US20030077740A1, “Presenilin/Crk binding polypeptides (PCBP) and methods of use thereof” (priority 2001, published 2003).
